In patent US9949948B2, “Artemisinin and its derivatives for use in the treatment of trauma haemorrhage and associated conditions” (Queen Mary University of London, priority 2011, dated 2018):

Tested on: rats subjected to regional myocardial ischaemia and reperfusion
Experiment: Regional myocardial ischaemia and reperfusion, artesunate and dihydroartemisinin
Assay type: in vivo, Wistar rats
Experimental: Rats were anaesthetised with thiopentone sodium (Intraval® 120 mg/kg i.p.). Anaesthesia was maintained by supplementary injections of thiopentone sodium as required. The trachea was cannulated and the animals were ventilated with a Harvard ventilator (inspiratory oxygen concentration: 30%; 70 strokes/min, tidal volume: 8-10 ml/kg). Body temperature was maintained at 37±1° C. with the aid of a rectal probe thermometer attached to a homeothermic blanket unit (Harvard Apparatus Ltd., Edenbridge, Kent. U.K.). […] The right jugular vein was then cannulated for the administration of drugs and saline. A para-sternal thoracotomy was then performed, using an Electrosurgery device to cauterize the intercostals arteries before cutting through three ribs. The chest was retracted and pericardium dissected from the heart. The left anterior descending (LAD) coronary artery was isolated and a snare occluder was placed around the LAD. The retractor was then removed and the animal was allowed to stabilise for 15 min.
The occluder was tightened at time 0. After 25 min of LAD-occlusion, the occluder was released to allow reperfusion of the previously ischemic myocardium (2 h). Haemodynamic parameters were continuously monitored. Baseline readings were taken prior to treatment, and, myocardial ischaemia reperfusion (IR) injury. The pressure rate index (PRI), a relative indicator of myocardial oxygen consumption was calculated as a product of the MAP (mmHg) and HR (beats/minute-bpm) and expressed in mm Hg bpm×10^−3.
At the end of the 2 h reperfusion period, the LAD was re-occluded and 1 ml of Evans Blue dye (2% w/v) was injected into the animal, via the jugular vein. The Evans Blue dye stains the tissue it can circulate through, therefore the non-perfused vascular (occluded) tissue remains un-coloured. Each animal was killed with an over-dose of anaesthetic, the heart excised, and excess dye washed off. […] The ischaemic and non-ischaemic tissue was weighed, and the AAR expressed as a percentage of the left ventricle. The tissue from the AAR was cut into small pieces and incubated with p-nitroblue tetrazolium (NBT, 0.5 mg/ml) for 30 min at 37° C. NBT is a reducing agent that reacts with dehydrogenases present in viable (non-infarcted) tissue to produce a dark blue formazan. Infarcted tissue (non-viable) will not have dehydrogenase activity and will therefore fail to stain. The stained tissue was separated from the infarcted tissue, weighed, and the infarct size expressed as a percentage of the AAR.
Sham-operated rats were subjected to surgical procedure without myocardial ischaemia and reperfusion.

[1] = bolus 0.1 mg/kg upon reperfusion, P>0.05 vs Control

`C[C@@H]1CC[C@H]2[C@@H](C)C(O)O[C@H]3O[C@@]4(C)CC[C@@H]1[C@]32OO4` (stereo partly drawn) [dihydroartemisinin, (3R,5aS,6R,8aS,9R,12S,12aR)-decahydro-3,6,9-trimethyl-3,12-epoxy-12H-pyrano[4,3-j]-1,2-benzodioxepin-10-ol] was tested, and the “infarct size (percentage of the AAR)” value (0.1 mg/kg i.v. bolus upon reperfusion, from 59.8±3.2, P<0.05) was 46.5±1.3%, the Infarct size reduction (0.1 mg/kg i.v. upon reperfusion, vs control) was 40% and the area at risk (0.1 mg/kg, compared to vehicle treated rats) was “no significant effect”. The “fall in mean arterial blood pressure caused by myocardial ischaemia and reperfusion” value [1] was “did not attenuate” and the heart rate [1] was “did not have a significant effect”.
